According to patent US20150368230A1, “RADIOLABELED QUINAZOLINE DERIVATIVES” (priority 2013, published 2015):

Columns and labels:
[1] = PET imaging with cold afatinib added to the tracer injection; format: in vivo, mice; details: cold dose of 100 ng afatinib added
Text: Showing that imaging of the tumor should be done at high specific activity.

H1975 xenograft [2] = experiment: Dynamic PET imaging, H1975 xenograft; format: in vivo, nude mice; details: H1975 (insensitive), no blocking
Method: (§1) Dynamic PET imaging was performed on three cancer xenograft (A549, H1975 and HCC827) lines in nude mice. Each mouse (n=3) carried one tumor of the same cancer xenograft line, which were located on the left or right flank. Imaging was performed for a duration of 120 min using a double-LSO/LYSO layer high-resolution research tomograph (HRRT; CTI/Siemens, Knoxville, Tenn., USA). The mice were anesthetized with 4% and 2% isoflurane in 1 L·min^−1 oxygen for induction and maintenance, respectively. First, for attenuation and scatter correction, a transmission scan was acquired using a 740-MBq two-dimensional (2D) fan-collimated ^137Cs (662 keV) moving point source. […] Positron emission scans were acquired in list mode and rebinned into the following frame sequence: 10×60 s, 4×300 s, and 9×600 s. After 120 min, [^18F]FDG was administered (I.V. ocular plexus) to the mice followed by scanning for another 60 min. Following corrections for decay, dead time, scatter and randoms, scans were reconstructed using an iterative 3D ordered-subsets weighted least-squares analysis (3D-OSWLS). Point source resolution varied across the field of view from approximately 2.3 to 3.2-mm full width at half maximum in the transaxial direction and from 2.5 to 3.4 mm in the axial direction. Post-filtering was not performed after reconstruction.

A549 xenograft [3] = experiment: Biodistribution studies, A549 tumor bearing mice; format: in vivo, nude mice (nu/nu); details: 5 minutes p.i.
Method: (§2) The mice were sacrificed and dissected at 5, 30, 60 and 120 minutes post-injection. Blood, urine, skin, left tumor, right tumor, muscle, heart, lung, liver, kidney and brain were collected, weighed and counted for radioactivity in a Wallac Compugamma 1210 counter (n=3 for each time point). Biodistribution data are expressed as percentage of injected dose per gram (% ID/g) tissue for each organ (FIG. 2).

HCC827 xenograft = experiment: Biodistribution studies, HCC827 tumor bearing mice; format: in vivo, nude mice (nu/nu); details: 5 minutes p.i.
Method: as §2

[4] = system: A549, H1975 or HCC827 xenografts; experiment: Biodistribution studies, statements for all investigated tumor types; format: in vivo, nude mice (nu/nu)
Method: as §2

A549 xenograft [5] = experiment: Dynamic PET imaging, A549 xenograft; format: in vivo, nude mice; details: A549 (insensitive), no blocking
Method: as §1

P-gp = experiment: PET imaging with P-gp blocking by tariquidar
[6] = Metabolite analysis in plasma after injection of tracer; format: in vivo, Balb/C mice; details: for Parent (%): plasma
Method: The mice were sacrificed at 15 (n=4) and 45 (n=4) min post-injection. At these time points, about 1.5 mL of blood was collected via a heart puncture. […] The cartridge was washed with 5 mL of H2O to collect polar radioactive metabolites. Thereafter, the tC2 Sep-Pak cartridge was eluted with 2 mL of MeOH and 1 mL of H2O to collect the mixture of apolar metabolites. […] HPLC was performed on a Dionex Ultimate 3000 system, equipped with a 1 mL loop. As a stationary phase a Phenomenex Gemini C18, 250×10 mm, 5 μm was used.

H1975 xenograft [7] = experiment: Biodistribution studies, H1975 tumor bearing mice; format: in vivo, nude mice (nu/nu); details: 5 minutes p.i.
Method: as §2

## CN(C)C/C=C/C(=O)Nc1cc2c(Nc3ccc([18F])c(Cl)c3)ncnc2cc1O[C@H]1CCOC1 [[^18F]afatinib, [^18F](S,E)-N-(4-((3-chloro-4-fluorophenyl)amino)-7-((tetrahydrofuran-3-yl)oxy)quinazolin-6-yl)-4-(dimethylamino)but-2-enamide]
[1]
  tumor uptake with cold afatinib co-injected: reduced to background levels
H1975 xenograft [2]
  uptake in tumor compared to background: hardly an increase of uptake in the tumors compared to the background
A549 xenograft [3]
  blood level of the tracer: 2.17 % ID/g
HCC827 xenograft
  blood level of the tracer: 1.56 % ID/g
[4]; mouse, in vivo
  uptake in the metabolic organs (kidney and liver): rapid and high uptake
[4]; tumors, 120 minutes p.i.
  activity remained in the tumor: around 1 % ID/g
A549 xenograft [5]
  uptake in tumor compared to background: hardly an increase of uptake in the tumors compared to the background
P-gp; P-gp active (no block)
  brain uptake: washed out from the brain
P-gp; P-gp blocked with tariquidar
  brain uptake: remains in the brain
P-gp; absolute tumor uptake increased when P-gp blocked
  P-gp substrate status: substrates
P-gp; tumor, tariquidar block
  washout after P-gp blocking: hardly shows any washout
[6]; metabolic profile of table 1
  in vivo stability of the tracer: excellent in vivo stability
[6]; 15 min p.i.
  Parent (%): 87.5 ± 0.8%
[6]; 45 min p.i.
  Parent (%): 83.3 ± 1.3%
H1975 xenograft [7]
  blood level of the tracer: 1.59 % ID/g
